Results taken from US9469613B2, “(N-(cyanomethyl)-4-(2-(4-morpholinophenylamino)pyrimidin-4-yl)benzamide” (Gilead Sciences, Inc., priority 2014, dated 2016).
Structures can show the parent of a compound that is named as a salt.

Assays:
[1] = Mass balance/recovery, metabolite profile, pharmacokinetics and safety of radiolabeled CYT-0387; format: in vivo, human; conditions: for share of circulating radioactivity: plasma
Description: CYT-0387 is a selective small molecule inhibitor of Janus kinase 1 and 2 (JAK1/JAK2) currently under investigation to treat myelofibrosis. This study evaluated the mass balance/recovery, metabolite profile, pharmacokinetics, and safety of radiolabeled CYT-0387 in humans.
Six healthy individuals (subjects) received a single oral dose of 200 mg CYT-0387 containing ˜100 μCi of [^14C]-CYT-0387. Blood samples were collected up to 21 days or until plasma radioactivity in 2 consecutive samples was below detection limit or urine and feces sampling was discontinued. Urine/feces samples were collected up to 21 days or until ≧90% administered dose was recovered in feces and urine and radioactivity in 2 consecutive sampling intervals were ≦1% administered dose. Plasma concentrations of CYT-0387 and metabolites were measured using LC-MS/MS and total radioactivity assessed by liquid scintillation counting. Metabolite profiling was performed in select urine, feces, and plasma samples. Safety assessments were performed throughout the study.

[2] = Solid form hygroscopicity and stability; format: physicochemical; conditions: exposed to moisture
Description: Dynamic Vapor Sorption: The hygroscopicity of N-(cyanomethyl)-4-(2-(4-morpholinophenylamino)pyrimidin-4-yl)benzamide dihydrochloride monohydrate Form II was evaluated at room temperature using a dynamic vapor sorption (DVS) instrument (TGA Q5000 TA Instruments, New Castle, Del.). Water adsorption and desorption were studied as a function of relative humidity (RH) over the range of 0 to 90% at room temperature. The humidity in the chamber was increased from the initial level 50% RH) to 60% RH and held until the solid and atmosphere reached equilibration. The equilibrium test was continued until passed or expired after 10 hours. At this point, RH was raised 10% higher and the process was repeated until 90% RH was reached and equilibrated. During this period, the water sorption was monitored. For desorption, the relative humidity was decreased in a similar manner to measure a full sorption/desorption cycle. All experiments were operated in dm/dt mode (mass variation over time) to determine the equilibration endpoint. Approximately 4 mg of solid CYT-0387 was used. Data analysis was conducted using Universal Analysis 2000 Version 4.7A (TA Instruments, New Castle, Del., USA).

Row | Compound | share of circulating radioactivity [1] [%] | excreted in feces [1] | excreted in urine ([1]; urine) | hygroscopicity and physical stability [2]
1 | NC(=O)CNC(=O)c1ccc(-c2ccnc(Nc3ccc(N4CCOCC4=O)cc3)n2)cc1 [Compound M8, N-(2-amino-2-oxoethyl)-4-(2-((4-(3-oxomorpholino)phenyl)amino)pyrimidin-4-yl)benzamide] | 5.8 | – | – | –
2 | O=C(O)c1ccc(-c2ccnc(Nc3ccc(N4CCOCC4=O)cc3)n2)cc1 [Compound M14, 4-(2-((4-(3-oxomorpholino)phenyl)amino)pyrimidin-4-yl)benzoic acid] | – | 21.4 % of the dose | – | –
3 | CC(=O)Nc1ccc(Nc2nccc(-c3ccc(C(=O)NCC#N)cc3)n2)cc1 [Compound M20, 4-(2-((4-acetamidophenyl)amino)pyrimidin-4-yl)-N-(cyanomethyl)benzamide] | 2.3 | – | – | –
4 | N#CCNC(=O)c1ccc(-c2ccnc(Nc3ccc(N4CCOCC4=O)cc3)n2)cc1 [Compound M21, N-(cyanomethyl)-4-(2-{[4-(3-oxomorpholin-4-yl)phenyl]amino}pyrimidin-4-yl)benzamide] | 64.2 | 12.7 % of the dose | 11.5 % of the dose | –
5 | N#CCNC(=O)c1ccc(-c2ccnc(Nc3ccc(N4CCOCC4)cc3)n2)cc1 [N-(cyanomethyl)-4-(2-(4-morpholinophenylamino)pyrimidin-4-yl)benzamide (CYT-0387) dihydrochloride anhydrous Form I] | – | – | – | hygroscopic and physically unstable
